According to patent US11555010B2, “Diamide antimicrobial agents” (BROWN UNIVERSITY, priority 2019, dated 2023):
In brackets after ≈: the same amount, converted by molar mass.

Legend:
B. subtilis = assay: Resazurin antimicrobial MIC assay; assay type: cell-based; conditions: Bacillus subtilis, read-out: Apparent MIC Value
Procedure: Bacillus subtilis ATCC 11775 was plated on agar from a 20% glycerol stock solution stored at −80′° C. Inoculated plates were then incubated at 37° C. under aerobic conditions for 16 hours. Single cultures were transferred to Nutrient Broth (NB) and cultured for 16 hours under the same conditions. […] The assay is performed in LB broth. […] Compounds are tested […] for their capacity to inhibit B. subtilis growth. In order to determine growth inhibition, a resazurin whole-cell assay was used (Kuhn, et al., 2014, Medchemcomm 5:1213-1217). Briefly, second-passage bacteria are incubated with inhibitor in a 96-well plate for four hours, then resazurin dye is added and color/fluorescence change is observed. The resazurin is naturally a blue color, but with reductive species produced during bacterial growth, it is reduced to resorufin, which appears pink. Resorufin is also fluorescent and can be measured by a plate-reader. The disclosures of each and every patent, patent application, and publication cited herein are hereby incorporated herein by reference in their entirety.

E. coli [1] = conditions: cited from earlier work
E. Coli [2] = assay: Resazurin antimicrobial MIC assay; conditions: Escherichia coli, read-out: Apparent MIC Value
Procedure: The assay is performed in LB broth. Resazurin sodium salt powder is prepared in distilled water and filter sterilized at 0.001% (w/v) for MIC assays and at 0.01% (w/v) for single concentration assays. Compounds are first screened in MIC assays to assess whether growth inhibition is dependent on inhibitor concentration. The plates are incubated for 30 min under aerobic conditions. Growth controls containing no inhibitory compound, sterility controls without inoculation, and controls containing a known antibiotic, chloramphenicol, are also included. […] Minimum inhibitory concentration (MIC) was determined as the lowest drug concentration that prevented the color change from blue to pink. Inhibition was quantified by observation of color change. […] Inhibition was quantified by fluorescence readings from plate reader SAFIRE, Firmware: V 2.2008/02 Safire. […] Plates are held at 37° C. and fluorescence measurements are taken at 0, 5, 10, 20, 30, and 60 min after addition of dye. Lower fluorescence values correlate to greater degrees of inhibition.
Briefly, second passage cells of B. subtilis 11774 were grown in LB media and standardized to an OD600 nm=1.0. Diamides were analyzed via serial dilution into LB media in microtitre plates. […] MICs were read directly off the plate or via fluorescence (λex 560 nm, λem 590 nm). MICs were recorded as the lowest concentration that inhibited growth.

## NCC(C(=O)NC1CCCCC1)N(C(=O)c1ccccc1I)C1CCCCC1 (stereo not shown) [Example 3, N-(3-amino-1-(cyclohexylamino)-1-oxopropan-2-yl)-N-cyclohexyl-2-iodobenzamide]
B. subtilis
  MIC: 5 µM (≈ 2.49 µg/mL)

## CC1=N[C@@H]2[C@@H](O)[C@H](O)[C@@H](CO)O[C@@H]2S1 [NAG-thiazoline]
E. coli [1]
  effect on the viability of E. coli: no effect

## O=C(NC1CCCCC1)C(C1CCNCC1)N(C(=O)c1ccccc1I)C1CCCCC1 (stereo not shown) [Example 6, N-cyclohexyl-N-(2-(cyclohexylamino)-2-oxo-1-(piperidin-4-yl)ethyl)-2-iodobenzamide]
E. Coli [2]
  MIC: 5 µM (≈ 2.76 µg/mL)

## CC(N)C(C(=O)NC1CCCCC1)N(C(=O)c1ccccc1I)C1CCCCC1 (stereo not shown) [Example 2]
B. subtilis
  MIC: 5 µM (≈ 2.56 µg/mL)
